Test results reported in ChEMBL document CHEMBL1125817, “Synthesis and evaluation of a series of 3,5-disubstituted benzisoxazole-4,7-diones. Potent radiosensitizers in vitro” (1991).

Assays:
[1] = Sensitizer enhancement ratio was determined from the ratio of the doses required to reduce cell survival to 25% of the control value obtained from hypoxic survival curves in the presence and absence of test compound; type: functional, Cricetulus griseus
Cricetulus griseus [2] = species: Cricetulus griseus; assay: Concentration of the highest non-toxic dose tested; type: functional
Cricetulus griseus [3] = species: Cricetulus griseus; assay: Sensitizer enhancement ratio was determined from the ratio of the doses required to reduce cell survival to 25% of the control value obtained from hypoxic survival curves in the presence and absence of test compound; c = Compound was too insoluble to test; type: functional
Cricetulus griseus [4] = species: Cricetulus griseus; assay: Concentration of the highest non-toxic dose tested; c = Compound was too insoluble to test; type: functional

| Structure (SMILES) | Ratio [1] | Concentration (Cricetulus griseus [2]) [mM] | Ratio (Cricetulus griseus [3]) | Concentration (Cricetulus griseus [4]) |
| --- | --- | --- | --- | --- |
| CN(C)CCNc1onc2c1C(=O)/C(=N\c1ccccc1)C=C2O | 1.5 | 0.19 | – | – |
| CN(C)CCCNc1onc2c1C(=O)/C(=N\c1ccc(C(F)(F)F)cc1)C=C2O | 1.3 | 0.09 | – | – |
| CCOc1onc2c1C(=O)/C(=N\c1ccc(C(F)(F)F)cc1)C=C2O | – | – | Too insoluble | Too insoluble |
| CN(C)CCN(C)c1onc2c1C(=O)/C(=N\c1ccccc1)C=C2O | 2 | 0.38 | – | – |
| CCOc1onc2c1C(=O)/C(=N\c1ccccc1)C=C2O | 1.3 | 0.03 | – | – |
| CCN(CC)c1onc2c1C(=O)/C(=N\c1ccccc1)C=C2O | – | – | Too insoluble | Too insoluble |
| O=C1C=C(Nc2ccc(F)cc2)C(=O)c2c1noc2NCCN1CCCCC1 | 1.6 | 0.29 | – | – |
| CN(C)CCCNc1onc2c1C(=O)/C(=N\c1ccc(Cl)cc1)C=C2O | 1.7 | 0.13 | – | – |
| CN(C)CCCN(C)c1onc2c1C(=O)/C(=N\c1ccccc1)C=C2O | 1.5 | 0.38 | – | – |
| O=C1C=C(Nc2ccc(Cl)cc2)C(=O)c2c1noc2NCCN1CCCCC1 | 1.9 | 0.19 | – | – |
| Cc1ccc(/N=C2/C=C(O)c3noc(NCCN(C)C)c3C2=O)cc1 | 1.2 | 0.05 | – | – |
| CCOc1onc2c1C(=O)/C(=N\c1ccc(F)cc1)C=C2O | – | – | Too insoluble | Too insoluble |
| O=C1C=C(Nc2ccccc2)C(=O)c2c1noc2NCCN1CCCCC1 | 2.4 | 0.38 | – | – |
| O=C1/C(=N\c2ccccc2)C=C(O)c2noc(N(CCO)CCO)c21 | 2.1 | 1.5 | – | – |
| CCNc1onc2c1C(=O)/C(=N\c1ccccc1)C=C2O | – | – | Too insoluble | Too insoluble |
| CCOc1onc2c1C(=O)/C(=N\c1ccc(Cl)cc1)C=C2O | – | – | Too insoluble | Too insoluble |
| CN(C)CCCNc1onc2c1C(=O)/C(=N\c1ccc(F)cc1)C=C2O | 1.4 | 0.38 | – | – |
| O=C1C=C(Nc2ccccc2)C(=O)c2c1noc2-c1ccccc1 | – | – | Too insoluble | Too insoluble |
| CCOc1onc2c1C(=O)/C(=N\c1ccc(C)cc1)C=C2O | – | – | Too insoluble | Too insoluble |
| CN(C)CCCNc1onc2c1C(=O)/C(=N\c1ccccc1)C=C2O | 1.7 | 0.19 | – | – |
| O=C1C=C(Nc2ccc(C(F)(F)F)cc2)C(=O)c2c1noc2NCCN1CCCCC1 | 1.6 | 0.13 | – | – |
| Cc1onc2c1C(=O)/C(=N\c1ccccc1)C=C2O | – | – | Too insoluble | Too insoluble |
